The values below come from ChEMBL document CHEMBL3886728, “Dihydrobenzoxazine and tetrahydroquinoxaline sodium channel inhibitors” (2016).

For assay [1], the target named is T1, Sodium channel protein type 9 subunit alpha (Homo sapiens, UniProt Q15858). Nature of the assay: In Vitro PX Assay: HEK 293 cells stably transfected with human Nav1.7 were recorded in whole cell voltage clamp mode with the PatchXpress automated electrophysiology system (Molecular Devices, LLC, Sunnyvale, Calif.). Compound effects were measured on a partially inactivated state of the sodium channel. Cells were clamped to a holding potential yielding 20 to 50% inactivation. To elicit sodium current, channels were activated by pulsing to −10 mV for 20 msec. This voltage protocol was repeated at a rate of 0.1 Hz throughout the experiment. A single concentration of test compound was applied to cells for a duration of 3 minutes. The assay is classed as cell-based.
T1 sequence (Q15858 whole entry): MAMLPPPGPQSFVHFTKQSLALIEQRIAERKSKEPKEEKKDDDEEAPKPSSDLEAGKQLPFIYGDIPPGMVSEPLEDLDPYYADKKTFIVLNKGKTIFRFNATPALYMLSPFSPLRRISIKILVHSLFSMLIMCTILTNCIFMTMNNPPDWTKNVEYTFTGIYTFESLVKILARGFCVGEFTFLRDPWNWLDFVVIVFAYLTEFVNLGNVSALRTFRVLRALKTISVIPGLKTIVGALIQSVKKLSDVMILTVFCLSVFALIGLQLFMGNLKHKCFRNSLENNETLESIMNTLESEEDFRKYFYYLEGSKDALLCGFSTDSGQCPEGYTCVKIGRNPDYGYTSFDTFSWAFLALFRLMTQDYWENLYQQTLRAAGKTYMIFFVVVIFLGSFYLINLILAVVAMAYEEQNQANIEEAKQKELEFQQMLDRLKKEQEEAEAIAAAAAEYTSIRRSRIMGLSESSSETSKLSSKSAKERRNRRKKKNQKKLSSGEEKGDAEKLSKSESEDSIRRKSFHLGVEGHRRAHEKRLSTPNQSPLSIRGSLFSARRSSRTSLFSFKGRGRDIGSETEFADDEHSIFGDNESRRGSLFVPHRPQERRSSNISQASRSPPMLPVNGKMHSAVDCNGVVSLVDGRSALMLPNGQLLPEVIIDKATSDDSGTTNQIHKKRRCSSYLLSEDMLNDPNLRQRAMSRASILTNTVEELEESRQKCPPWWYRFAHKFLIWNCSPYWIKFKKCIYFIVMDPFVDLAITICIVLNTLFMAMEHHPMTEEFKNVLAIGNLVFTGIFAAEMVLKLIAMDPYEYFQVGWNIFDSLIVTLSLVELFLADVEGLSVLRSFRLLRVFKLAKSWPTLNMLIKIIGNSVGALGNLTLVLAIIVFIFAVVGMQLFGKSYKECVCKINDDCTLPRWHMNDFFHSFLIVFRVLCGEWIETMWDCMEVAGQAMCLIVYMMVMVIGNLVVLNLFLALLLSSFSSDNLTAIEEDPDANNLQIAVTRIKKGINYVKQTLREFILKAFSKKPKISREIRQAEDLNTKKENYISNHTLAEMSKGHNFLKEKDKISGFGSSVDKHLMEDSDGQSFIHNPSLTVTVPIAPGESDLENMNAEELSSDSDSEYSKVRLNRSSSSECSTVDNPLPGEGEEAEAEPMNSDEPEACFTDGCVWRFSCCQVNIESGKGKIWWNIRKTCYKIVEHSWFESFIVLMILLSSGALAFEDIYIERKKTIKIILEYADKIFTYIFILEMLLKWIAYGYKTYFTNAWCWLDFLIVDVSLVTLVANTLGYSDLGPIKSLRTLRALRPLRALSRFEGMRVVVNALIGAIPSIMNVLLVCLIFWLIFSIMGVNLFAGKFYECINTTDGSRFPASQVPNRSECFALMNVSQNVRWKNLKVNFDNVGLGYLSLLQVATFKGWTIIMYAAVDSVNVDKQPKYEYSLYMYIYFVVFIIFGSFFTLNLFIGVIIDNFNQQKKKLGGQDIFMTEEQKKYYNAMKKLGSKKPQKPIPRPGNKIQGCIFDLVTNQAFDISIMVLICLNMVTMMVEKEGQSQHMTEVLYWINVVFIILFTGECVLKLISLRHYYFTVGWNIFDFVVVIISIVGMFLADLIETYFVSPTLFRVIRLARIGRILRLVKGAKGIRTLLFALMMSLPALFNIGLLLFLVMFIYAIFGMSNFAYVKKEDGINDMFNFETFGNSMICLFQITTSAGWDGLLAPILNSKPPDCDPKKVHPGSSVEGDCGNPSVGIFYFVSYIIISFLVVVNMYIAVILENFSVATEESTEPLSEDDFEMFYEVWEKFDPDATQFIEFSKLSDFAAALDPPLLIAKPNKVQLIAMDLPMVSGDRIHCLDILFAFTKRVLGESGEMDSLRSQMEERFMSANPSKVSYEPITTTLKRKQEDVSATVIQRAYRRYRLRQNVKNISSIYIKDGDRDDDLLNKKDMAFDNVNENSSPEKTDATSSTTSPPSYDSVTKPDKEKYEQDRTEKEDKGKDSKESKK

Assay [2] has as its target T1, Sodium channel protein type 9 subunit alpha. The experiment in a line: In Vitro Assay: HEK 293 cells stably transfected with either Nav 1.7 or with Nav 1.5 were recorded in population patch-clamp mode with the IonWorks® Quattro automated electrophysiology system in accordance with the manufacturer's specifications (Molecular Devices, LLC, Sunnyvale, Calif.). Sodium channel currents were measured in response to a train of depolarizations that induced successively greater inactivation. Cells were held at −110 mV for three seconds (Nav 1.7) or half a second (Nav 1.5) from a holding voltage of −15 mV, then put through a series of 26 pulses of 150 msec duration to −20 mV at a frequency of 5 Hz. Cells were then left unclamped for a period of 3 to 8 minutes while a single concentration of test compound was added. Cells were then reclamped and put through the same voltage protocol. Current at the end of the 26th pulse to −20 mV was subtracted from the peak current evoked by the 26th pulse to −20 mV to correct for leak current. The assay is classed as cell-based. (In patch-clamp work, channel activity is measured electrically.)

`O=S(=O)(Nc1nccs1)c1ccc2c(c1)OCCN2c1ccc(-n2ccnc2)cc1`: the results for the IC50 in assay [1] and in assay [2] were 13.7 µM and 2.69 µM, respectively.

In the case of `COc1cc(C#N)ccc1N1CCOc2cc(S(=O)(=O)Nc3ccncn3)ccc21`, the IC50 – broadly, the concentration that gives 50% inhibition – in assay [1] turned out to be 0.91 µM. In the case of `COc1ccc(N2CCOc3cc(S(=O)(=O)Nc4nccs4)ccc32)c(C#N)c1`, the IC50 is 13.8 µM in assay [1] and 2.69 µM in assay [2]. In the case of `O=S(=O)(Nc1nccs1)c1ccc2c(c1)OCCN2c1cccc(Cl)c1Cl`, the concentration for half-maximal inhibition (IC50) in assay [1] stood at 0.961 µM; in assay [2], 0.274 µM. In the same order, the values of `O=S(=O)(Nc1nccs1)c1ccc2c(c1)OCCN2c1ncc(Cl)cc1Cl` are 4.5 µM and 0.397 µM.

Turning to `CCOc1cccc(N2CCOc3cc(S(=O)(=O)Nc4nccs4)ccc32)c1`, the half-maximal inhibitory concentration (IC50) in assay [1] stood at 2.85 µM; in assay [2], 0.742 µM. For `O=S(=O)(Nc1nccs1)c1ccc2c(c1)OCCN2c1cccc2scnc12` the same measures were 5.76 µM and 3.76 µM. For `Cc1c(Cl)cccc1N1CCOc2cc(S(=O)(=O)Nc3nccs3)ccc21` the same measures were 0.416 µM and 0.601 µM. In the same order, the values of `O=C1CCCc2ccc(N3CCOc4cc(S(=O)(=O)Nc5nccs5)ccc43)cc21` are 7.1 µM and 1.1 µM. Take `CN1CC=C(c2cc(C(F)(F)F)ccc2N2CCOc3cc(S(=O)(=O)Nc4ccncn4)ccc32)CC1`: the IC50 was found to be 0.364 µM in assay [1] and 0.0045 µM in assay [2]. In the case of `Cc1ccc(N2CCOc3cc(S(=O)(=O)Nc4nccs4)ccc32)cc1F`, the IC50 in assay [2] turned out to be 7.37 µM.

On to `CC(C)(C)OC(=O)N1CC=C(c2cc(C(F)(F)F)ccc2N2CCOc3cc(S(=O)(=O)Nc4ncns4)ccc32)CC1`, for which the figures for the IC50 in assay [1] and in assay [2] were 0.306 µM and 0.0818 µM, respectively. In the same order, the values of `Cc1cc(N2CCOc3cc(S(=O)(=O)Nc4nccs4)ccc32)cc(C)c1N(C)C` are 2.37 µM and 0.808 µM. For `N#Cc1ccc(F)c(N2CCOc3cc(S(=O)(=O)Nc4nccs4)ccc32)c1` the same measures were 3.19 µM and 0.727 µM. For `COc1cccc(N2CCOc3cc(S(=O)(=O)Nc4nccs4)ccc32)c1` the same measures were 2.07 µM and 0.141 µM. Regarding `O=S(=O)(Nc1nccs1)c1ccc2c(c1)OCCN2c1ccccc1C(F)(F)F`, the IC50 in assay [1] was found to be 8.02 µM; in assay [2], 1.66 µM.

With `O=S(=O)(Nc1nccs1)c1ccc2c(c1)OCCN2c1cc(F)ccc1F`, the IC50 amounted to 1.11 µM in assay [1] and 0.114 µM in assay [2]. For `Cc1ccc(N2CCOc3cc(S(=O)(=O)Nc4nccs4)ccc32)cc1Cl` the same measures were 1.55 µM and 0.733 µM.

With `O=S(=O)(Nc1nccs1)c1ccc2c(c1)OCCN2c1ccc(F)cc1F`, the IC50 is 1.82 µM in assay [1] and 0.191 µM in assay [2].
